Measurements from patent US8242128B2, “1,3-benzoxazolyl derivatives as kinase inhibitors” (Merck Patent GmbH, priority 2003, dated 2012).

What was measured:
RAF = test: Inhibition of RAF; type: biochemical
TIE-2 = TIE-2 (Homo sapiens, UniProt Q02763); test: Inhibition of TIE-2 (flashplate kinase assay, poly(Glu, Tyr) phosphorylation, 33P-ATP); type: biochemical
Description: The TIE-2 tests can be carried out, for example, analogously to the methods indicated in WO 02/44156.
The assay determines the inhibiting activity of the substances to be tested in the phosphorylation of the substrate poly(Glu, Tyr) by Tie-2 kinase in the presence of radioactive ^33P-ATP. The phosphorylated substrate binds to the surface of a “flashplate” microtitre plate during the incubation time. After removal of the reaction mixture, the microtitre plate is washed a number of times and the radioactivity on its surface is subsequently measured. An inhibiting effect of the substances to be measured results in lower radioactivity compared with an undisturbed enzymatic reaction.

TIE-2, sequence (Q02763 23-1124, species assumed): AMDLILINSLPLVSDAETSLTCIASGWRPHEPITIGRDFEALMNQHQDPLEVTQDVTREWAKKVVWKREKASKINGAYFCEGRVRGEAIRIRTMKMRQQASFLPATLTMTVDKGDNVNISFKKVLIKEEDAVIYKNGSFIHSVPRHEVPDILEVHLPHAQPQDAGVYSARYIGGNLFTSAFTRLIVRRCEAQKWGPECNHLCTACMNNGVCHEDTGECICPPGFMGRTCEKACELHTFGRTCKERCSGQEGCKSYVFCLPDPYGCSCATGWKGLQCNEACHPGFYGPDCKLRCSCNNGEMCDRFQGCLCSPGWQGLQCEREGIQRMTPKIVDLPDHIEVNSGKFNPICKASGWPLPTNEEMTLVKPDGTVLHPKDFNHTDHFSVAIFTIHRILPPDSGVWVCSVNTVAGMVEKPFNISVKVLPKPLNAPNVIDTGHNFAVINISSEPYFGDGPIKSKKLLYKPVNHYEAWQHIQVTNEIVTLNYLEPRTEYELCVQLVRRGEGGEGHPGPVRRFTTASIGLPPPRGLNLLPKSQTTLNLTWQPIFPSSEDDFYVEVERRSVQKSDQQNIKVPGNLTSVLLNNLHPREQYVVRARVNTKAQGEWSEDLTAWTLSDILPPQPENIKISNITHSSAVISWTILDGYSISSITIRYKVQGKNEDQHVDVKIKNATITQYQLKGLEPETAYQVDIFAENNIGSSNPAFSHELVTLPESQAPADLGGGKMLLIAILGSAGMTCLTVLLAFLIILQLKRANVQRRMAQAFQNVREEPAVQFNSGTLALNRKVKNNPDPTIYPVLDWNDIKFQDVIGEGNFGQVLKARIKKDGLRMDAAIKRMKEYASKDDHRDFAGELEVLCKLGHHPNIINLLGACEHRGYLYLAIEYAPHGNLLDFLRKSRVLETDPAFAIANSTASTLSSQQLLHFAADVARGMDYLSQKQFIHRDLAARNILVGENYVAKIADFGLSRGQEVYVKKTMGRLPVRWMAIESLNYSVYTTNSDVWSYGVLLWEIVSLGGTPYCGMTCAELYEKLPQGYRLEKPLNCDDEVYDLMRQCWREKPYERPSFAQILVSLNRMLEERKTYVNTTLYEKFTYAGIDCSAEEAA

For `O=[N+]([O-])c1cc(Cl)cc2nc(Nc3ccc(Sc4ccncc4)cc3)oc12` [(5-Chloro-7-nitrobenzoxazol-2-yl)-[4-(pyridin-4-ylsulfanyl)phenyl]amine], the IC50 (RAF) was > 1000 nM and the IC50 (TIE-2) was 310 nM.
